Measurements as given in article PMC8707145, “Synthesis, Molecular Docking and Antiplasmodial Activities of New Tetrahydro-β-Carbolines” (International Journal of Molecular Sciences, 2021).
Where two headings read alike, the source gives them in different places.

Tests used:
[1] = test system: P. falciparum RKL-9 strain; design: method as in PMID 30411030; details: ref [11], cited from earlier work
[2] = test system: P. falciparum 3D7 strain; design: method as in PMID 30411030; details: ref [11], cited from earlier work
[3] = test system: normal dermal fibroblasts; design: method as in PMID 30411030; details: ref [11]; cited from earlier work
[4] = test system: P. falciparum D10 (CQ-sensitive) strain; assay: P. falciparum drug susceptibility assay (pLDH), D10 strain; type: cell-based; details: Plasmodium falciparum, read-out: P. falciparum IC50 D10
Method: Plasmodium falciparum cultures were established according to the method of Trager and Jensen, with slight modifications. […] Drugs were introduced into 96-well flat-bottomed microplates and serial dilutions made. […] Parasite growth was determined spectrophotometrically (OD650) by measuring the activity of parasite lactate dehydrogenase (pLDH), according to a modified version of the method of Makler, in both control and drug-treated cultures.

[5] = test system: P. falciparum W2 (CQ-resistant) strain; assay: P. falciparum drug susceptibility assay (pLDH), W2 strain; type: cell-based, Plasmodium falciparum; details: for IC50: Plasmodium falciparum, read-out: P. falciparum IC50 W2; for RI (resistance index): RI = IC50 CQ resistant P. falciparum strain/IC50 CQ sensitive P. falciparum strain
Method: Plasmodium falciparum cultures were established according to the method of Trager and Jensen, with slight modifications. The CQ-susceptible strain, D10, and the CQ-resistant strain, W2, were maintained in human type A-positive red blood cells at 5% hematocrit in RPMI 1640 medium with the addition of 1% AlbuMax, 0.01% hypoxanthine, 20 mM Hepes, and 2 mM glutamine. Cultures were maintained at 37 °C in a gas mixture consisting of 1% O2, 5% CO2, and 94% N2. Compounds were dissolved in DMSO and diluted with medium to achieve the required concentrations (final DMSO concentration <1%, which is non-toxic to the parasite). Drugs were introduced into 96-well flat-bottomed microplates and serial dilutions made. Asynchronous cultures with parasitaemia of 1–1.5% and 1% final hematocrit were aliquoted into the plates and incubated for 72 h at 37 °C. Parasite growth was determined spectrophotometrically (OD650) by measuring the activity of parasite lactate dehydrogenase (pLDH), according to a modified version of the method of Makler, in both control and drug-treated cultures.

[6] = Cytotoxicity assay on HMEC-1 cell line (MTT); type: cell-based, human; details: human, HMEC-1 cells; HMEC-1, MTT, 72 h
Method: (§1) The long-term human microvascular endothelial cell line (HMEC-1) was maintained in MCDB 131 medium supplemented with 10% fetal calf serum, 10 ng/mL of epidermal growth factor, 1 µg/mL of hydrocortisone, 2 mM glutamine and 20 mM Hepes buffer. For the cytotoxicity assays, cells were treated with serial dilutions of test compounds and cell proliferation evaluated using the MTT assay. Plates were incubated for 72 h at 37 °C in 5% CO2, then 20 µL of a 5 mg/mL solution of 3-(4,5-dimethylthiazol-2-yl)-2,5-diphenyltetrazolium bromide (MTT) in PBS was added for an additional 3 h at 37 °C. The plates were then centrifuged, the supernatants discarded, and the dark blue formazan crystals dissolved using 100 µL of lysing buffer consisting of 20% (w/v) of a solution of SDS, 40% of N,N dimethylformamide in H2O, at pH 4.7 adjusted with 80% acetic acid. The plates were then read on a microplate reader (Synergy 4 Bio-Tek Instruments, Thermo Fisher Scientific, Waltham, MA, USA) at a test wavelength of 550 nm and a reference wavelength of 650 nm. All the tests were performed in triplicate at least three times.

[7] = Determination of hemolytic activity; type: cell-based; details: human erythrocytes, released hemoglobin, read-out: level of hemolysis
Method: We also sought to investigate the hemolytic potential of the synthetized compounds. […] We incubated these compounds at a concentration of 10 µM, with human erythrocytes, and then, by measuring the released hemoglobin, we assessed their potential harmful effects on these cells. The measured level of hemolysis was less than 5% for all agents, which proves that the compounds are not hemolytic. It is worth emphasizing at this point that this type of test is extremely important to confirm that the observed inhibitory activity against Plasmodium is a result of a compound acting directly upon it and not as a result of red blood cell lysis.
The study protocol was approved by the Bioethics Commission at the Lower Silesian Medical Chamber (1/PNHAB/2018, approval date 14 February 2018), and experiments were performed as previously described. Compounds dissolved in DMSO were added in a volume corresponding to a final concentration of 10 µM in the sample. Negative (erythrocytes in PBS buffer), positive (erythrocytes in distilled water), and DMSO controls were also prepared.

[8] = test system: human microvascular endothelial (HMEC-1) cell line; assay: Cytotoxicity assay on HMEC-1 cell line (MTT); type: cell-based; details: for SI D10: SI = IC50 HMEC-1/IC50 P. falciparum D10 strain; for SI W2: SI = IC50 HMEC-1/IC50 P. falciparum W2 strain
Method: as §1

[9] = test system: P. falciparum; details: read-out: 50% inhibitory concentration (IC50); range of values; no diminished potency against drug-resistant strains; ref [8]; cited from earlier work
[10] = test system: P. falciparum Dd2 strain; design: method as in PMID 29072835; details: ref [10], read-out: IC50 growth of P. falciparum Dd2 strain; cited from earlier work
[11] = test system: human microvascular endothelial (HMEC-1) cell line; details: read-out: IC50 on HMEC-1 cell line, ref [21]; cited from earlier work
[12] = D10 (CQ-sensitive) strain, 72 h, pLDH
[13] = W2 (CQ-resistant) strain, 72 h, pLDH

Row | Structure (SMILES) | IC50 [4, 12] | IC50 [5, 13] | RI (resistance index) [5] | IC50 at 72 h [6] | SI D10 [8] | SI W2 [8] | other results
1 | COC(=O)[C@@H]1Cc2c([nH]c3ccccc23)[C@@H](c2ccc3c(c2)OCO3)N1 [Compound 9a] | – | – | – | – | – | – | IC50 ([1]; RKL-9 strain): < 2.86 µM; selectivity index RKL-9 ([1]; against RKL-9 strain): > 10; IC50 ([2]; 3D7 strain): < 2.86 µM; selectivity index 3D7 ([2]; against 3D7 strain): > 10; toxicity to normal dermal fibroblasts [3]: nontoxic
2 | O=C(NCC1CCCO1)C1Cc2c([nH]c3ccccc23)C(c2ccc(Cl)cc2)N1 (stereo not shown) [Compound 10, 1-(4-chlorophenyl)-N-((tetrahydrofuran-2-yl)methyl)-2,3,4,9-tetrahydro-1H-pyrido[3,4-b]indole-3-carboxamide] | 29.4 ± 7.88 µM | 20.5 ± 2.2 µM | 0.70 | – | – | – | –
3 | O=C(NC1CCCCC1)[C@@H]1Cc2c([nH]c3ccccc23)[C@@H](c2ccc(Cl)cc2)N1 (racemic) [1RS,3SR-13, (1RS,3SR)-1-(4-chlorophenyl)-N-cyclohexyl-2,3,4,9-tetrahydro-1H-pyrido[3,4-b]indole-3-carboxamide] | 12.5 ± 0.71 µM | 9.13 ± 0.83 µM | 0.73 | > 123 µM | – | – | –
4 | CC1NC(C(=O)N2CCCCC2)Cc2c1[nH]c1ccccc21 (stereo not shown) [Compound 3, (1-methyl-2,3,4,9-tetrahydro-1H-pyrido[3,4-b]indol-3-yl)(piperidin-1-yl)methanone] | 13.2 ± 2.85 µM | 9.6 ± 0.78 µM | 0.73 | 157 ± 42.5 µM | 11.93 | 16.37 | hemolysis at 10 µM [7]: < 5%
5 | O=C(NC1CCCCC1)[C@@H]1Cc2c([nH]c3ccccc23)[C@H](c2ccc(Cl)cc2)N1 (racemic) [1RS,3RS-13, (1SR,3SR)-1-(4-chlorophenyl)-N-cyclohexyl-2,3,4,9-tetrahydro-1H-pyrido[3,4-b]indole-3-carboxamide] | 16.1 ± 3.36 µM | 13.5 ± 1.99 µM | 0.84 | 53.8 ± 21.9 µM | 3.35 | 4.00 | –
6 | CC(C)(C)CCNC(=O)C1Cc2c([nH]c3ccccc23)C(c2ccc(Cl)cc2)N1 (stereo not shown) [Compound 8, 1-(4-chlorophenyl)-N-(3,3-dimethylbutyl)-2,3,4,9-tetrahydro-1H-pyrido[3,4-b]indole-3-carboxamide] | 10.5 ± 1.53 µM | 7.8 ± 1.54 µM | 0.74 | 17.9 ± 9.46 µM | 1.71 | 2.30 | –
7 | CC1NC(C(=O)NC2CCCCC2)Cc2c1[nH]c1ccccc21 (stereo not shown) [Compound 4, N-cyclohexyl-1-methyl-2,3,4,9-tetrahydro-1H-pyrido[3,4-b]indole-3-carboxamide] | 21.4 ± 4.7 µM | 20.1 ± 2.79 µM | 0.94 | – | – | – | –
8 | O=C(NCC1CCCCC1)C1Cc2c([nH]c3ccccc23)C(c2ccc(Cl)cc2)N1 (stereo not shown) [Compound 14, 1-(4-chlorophenyl)-N-(cyclohexylmethyl)-2,3,4,9-tetrahydro-1H-pyrido[3,4-b]indole-3-carboxamide] | > 47.4 µM | > 47.4 µM | – | – | – | – | –
9 | C[C@H]1Cc2c([nH]c3cc(Cl)c(F)cc23)[C@@]2(N1)C(=O)Nc1ccc(Cl)cc12 [Cipargamin] | – | – | – | – | – | – | IC50 [9]: 0.0005 to 0.0014 µM
10 | CC(C)(C)CC(C)(C)NC(=O)C1Cc2c([nH]c3ccccc23)C(c2ccc(Cl)cc2)N1 (stereo not shown) [Compound 9, 1-(4-chlorophenyl)-N-(2,4,4-trimethylpentan-2-yl)-2,3,4,9-tetrahydro-1H-pyrido[3,4-b]indole-3-carboxamide] | 8.41 ± 1.2 µM | 6.41 ± 1.05 µM | 0.76 | 18.9 ± 10.2 µM | 2.25 | 2.95 | –
11 | O=C(NCCCN1CCOCC1)C1Cc2c([nH]c3ccccc23)C(c2ccc(Cl)cc2)N1 (stereo not shown) [Compound 12, 1-(4-chlorophenyl)-N-(3-morpholinopropyl)-2,3,4,9-tetrahydro-1H-pyrido[3,4-b]indole-3-carboxamide] | 11.5 ± 0.34 µM | 6.15 ± 0.46 µM | 0.54 | 102 ± 14.8 µM | 8.91 | 16.60 | hemolysis at 10 µM [7]: < 5%
12 | CC1NC(C(=O)NCC2CCCCC2)Cc2c1[nH]c1ccccc21 (stereo not shown) [Compound 5, N-(cyclohexylmethyl)-1-methyl-2,3,4,9-tetrahydro-1H-pyrido[3,4-b]indole-3-carboxamide] | 33.5 ± 7.58 µM | 16.2 ± 4.11 µM | 0.48 | – | – | – | –
13 | O=C(NC1CCCCCCC1)C1Cc2c([nH]c3ccccc23)CN1 (stereo not shown) [Compound 2, N-cyclooctyl-2,3,4,9-tetrahydro-1H-pyrido[3,4-b]indole-3-carboxamide] | 21.9 ± 5.82 µM | 10.1 ± 2.14 µM | 0.46 | – | – | – | –
14 | O=C(O)[C@@H]1Cc2c([nH]c3ccccc23)[C@@H](c2ccc(Cl)cc2Cl)N1 [MMV008138] | – | – | – | – | – | – | IC50 [10]: 0.25 µM
15 | CCCCCCCCC1NC(C(=O)NCCC(C)(C)C)Cc2c1[nH]c1ccccc21 (stereo not shown) [Compound 7, N-(3,3-dimethylbutyl)-1-octyl-2,3,4,9-tetrahydro-1H-pyrido[3,4-b]-indole-3-carboxamide] | 4.45 ± 0.83 µM | 4 ± 0.53 µM | 0.90 | 72 ± 22.4 µM | 16.18 | 18.00 | hemolysis at 10 µM [7]: < 5%
16 | O=C(NCC1COCCO1)C1Cc2c([nH]c3ccccc23)C(c2ccc(Cl)cc2)N1 (stereo not shown) [Compound 11, N-((1,4-dioxan-2-yl)methyl)-1-(4-chlorophenyl)-2,3,4,9-tetrahydro-1H-pyrido[3,4-b]indole-3-carboxamide] | 35.4 ± 4.86 µM | 29.1 ± 4.05 µM | 0.82 | – | – | – | –
17 | CCN(CC)CCCC(C)Nc1ccnc2cc(Cl)ccc12 (stereo not shown) [CQ, chloroquine, reference compound] | – | – | – | – | – | – | IC50 ([4]; D10, 72 h): 0.017 ± 0.006 µM; IC50 ([5]; W2, 72 h): 0.27 ± 0.07 µM; IC50 [11]: > 38 µM
18 | CCC1NC(C(=O)NC23CC4CC(CC(C4)C2)C3)Cc2c1[nH]c1ccccc21 (stereo not shown) [Compound 6, N-(Adamantan-1-yl)-1-ethyl-2,3,4,9-tetrahydro-1H-pyrido[3,4-b]indole-3-carboxamide] | 9.73 ± 0.96 µM | 11.4 ± 0.82 µM | 1.17 | 21.1 ± 8.82 µM | 2.17 | 1.86 | –
